Values quoted from earlier work in patent publication US10603329B2 (INDENA S.P.A., priority 2006, dated 2020).

Tested on: cancer cells
Conditions: in vitro; read-out: IC50, growth of cancer cells

IC50: 20 to 75 µM
SMILES: COc1cc(C=CC(=O)CC(=O)C=Cc2ccc(O)c(OC)c2)ccc1O [curcumin, 1,7-bis(4-hydroxyl-3-methoxyphenyl)-1,6-heptadiene-3,5-dione]
